Assay results: ChEMBL document CHEMBL3616397, “Voltage-Gated Sodium Channels: Structure, Function, Pharmacology, and Clinical Indications” (J Med Chem, 2015)

What was measured:
[1] = target: Sodium channel protein type 2 subunit alpha (Homo sapiens, UniProt Q99250); test: Inhibition of human NaV1.2 channel by patch clamp electrophysiology assay
[2] = target: Sodium channel protein type 5 subunit alpha (Homo sapiens, UniProt Q14524); test: Inhibition of human NaV1.5 channel expressed in HEK293 cells by patch clamp electrophysiology assay; assay type: cell-based
Sodium channel protein type 5 subunit alpha, sequence (Q14524 whole entry): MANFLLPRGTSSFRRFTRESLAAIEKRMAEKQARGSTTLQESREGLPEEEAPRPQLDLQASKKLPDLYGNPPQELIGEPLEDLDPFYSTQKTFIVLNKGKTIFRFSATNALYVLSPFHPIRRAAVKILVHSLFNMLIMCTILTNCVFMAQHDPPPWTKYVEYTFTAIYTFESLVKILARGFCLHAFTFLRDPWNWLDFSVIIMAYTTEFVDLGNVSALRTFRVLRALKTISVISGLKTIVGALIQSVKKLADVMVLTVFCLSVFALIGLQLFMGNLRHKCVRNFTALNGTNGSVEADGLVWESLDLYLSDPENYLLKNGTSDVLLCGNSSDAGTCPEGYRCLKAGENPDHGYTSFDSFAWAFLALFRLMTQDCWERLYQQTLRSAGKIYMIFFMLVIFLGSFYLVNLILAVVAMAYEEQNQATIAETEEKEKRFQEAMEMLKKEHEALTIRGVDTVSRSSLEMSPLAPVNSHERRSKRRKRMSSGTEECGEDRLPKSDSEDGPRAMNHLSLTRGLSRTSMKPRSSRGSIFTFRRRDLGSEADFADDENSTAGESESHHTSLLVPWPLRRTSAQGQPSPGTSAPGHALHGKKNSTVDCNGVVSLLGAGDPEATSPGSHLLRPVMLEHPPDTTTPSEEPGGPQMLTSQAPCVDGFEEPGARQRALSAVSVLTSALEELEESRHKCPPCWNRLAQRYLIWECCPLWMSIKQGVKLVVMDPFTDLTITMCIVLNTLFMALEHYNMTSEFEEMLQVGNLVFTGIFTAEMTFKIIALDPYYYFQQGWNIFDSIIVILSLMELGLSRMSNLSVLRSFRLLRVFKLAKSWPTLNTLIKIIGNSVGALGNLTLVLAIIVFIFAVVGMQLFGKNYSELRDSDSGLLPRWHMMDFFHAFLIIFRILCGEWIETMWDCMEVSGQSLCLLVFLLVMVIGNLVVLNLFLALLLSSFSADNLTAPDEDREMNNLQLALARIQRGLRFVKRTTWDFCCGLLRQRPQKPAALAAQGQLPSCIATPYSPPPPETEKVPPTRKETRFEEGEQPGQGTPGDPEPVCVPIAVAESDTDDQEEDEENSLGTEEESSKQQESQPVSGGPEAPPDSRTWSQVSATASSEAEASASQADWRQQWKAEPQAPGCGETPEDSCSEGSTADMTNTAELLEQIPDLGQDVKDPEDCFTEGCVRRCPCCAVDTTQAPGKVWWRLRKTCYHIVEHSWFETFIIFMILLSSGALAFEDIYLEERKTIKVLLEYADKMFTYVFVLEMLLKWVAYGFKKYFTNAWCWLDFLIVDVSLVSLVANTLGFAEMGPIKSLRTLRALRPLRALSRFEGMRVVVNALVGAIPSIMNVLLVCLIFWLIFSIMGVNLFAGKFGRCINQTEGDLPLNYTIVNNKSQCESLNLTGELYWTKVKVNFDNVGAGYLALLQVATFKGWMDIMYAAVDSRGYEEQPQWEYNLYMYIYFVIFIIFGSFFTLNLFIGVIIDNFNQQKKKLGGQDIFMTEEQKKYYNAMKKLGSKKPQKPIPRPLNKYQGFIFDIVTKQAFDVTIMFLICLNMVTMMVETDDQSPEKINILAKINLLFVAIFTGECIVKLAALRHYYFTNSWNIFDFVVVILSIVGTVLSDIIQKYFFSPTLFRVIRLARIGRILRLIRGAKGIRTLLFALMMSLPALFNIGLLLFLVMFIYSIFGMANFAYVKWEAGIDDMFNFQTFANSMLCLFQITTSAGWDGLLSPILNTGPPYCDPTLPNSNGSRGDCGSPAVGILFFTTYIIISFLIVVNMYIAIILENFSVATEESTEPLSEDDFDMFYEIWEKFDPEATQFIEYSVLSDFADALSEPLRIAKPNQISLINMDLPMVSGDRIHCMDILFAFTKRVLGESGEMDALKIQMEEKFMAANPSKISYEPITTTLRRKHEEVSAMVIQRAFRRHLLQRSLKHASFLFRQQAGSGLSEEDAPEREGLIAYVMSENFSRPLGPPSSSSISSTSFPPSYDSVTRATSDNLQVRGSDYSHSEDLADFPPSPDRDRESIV

[3] = target: Sodium channel protein type 1 subunit alpha (Homo sapiens, UniProt P35498); test: Inhibition of human NaV1.1 channel by patch clamp electrophysiology assay
[4] = target: Sodium channel protein type 8 subunit alpha (Homo sapiens, UniProt Q9UQD0); test: Inhibition of human NaV1.6 channel by patch clamp electrophysiology assay
[5] = target: Sodium channel protein type 3 subunit alpha (Homo sapiens, UniProt Q9NY46); test: Inhibition of human TTX-sensitive NaV1.3 channel expressed in HEK293 cells by patch clamp electrophysiology assay; assay type: cell-based
[6] = target: T1, Sodium channel protein type 9 subunit alpha (Homo sapiens, UniProt Q15858); test: Inhibition of human NaV1.7 channel expressed in HEK293 cells by patch clamp electrophysiology assay; assay type: cell-based
T1 sequence (Q15858 whole entry): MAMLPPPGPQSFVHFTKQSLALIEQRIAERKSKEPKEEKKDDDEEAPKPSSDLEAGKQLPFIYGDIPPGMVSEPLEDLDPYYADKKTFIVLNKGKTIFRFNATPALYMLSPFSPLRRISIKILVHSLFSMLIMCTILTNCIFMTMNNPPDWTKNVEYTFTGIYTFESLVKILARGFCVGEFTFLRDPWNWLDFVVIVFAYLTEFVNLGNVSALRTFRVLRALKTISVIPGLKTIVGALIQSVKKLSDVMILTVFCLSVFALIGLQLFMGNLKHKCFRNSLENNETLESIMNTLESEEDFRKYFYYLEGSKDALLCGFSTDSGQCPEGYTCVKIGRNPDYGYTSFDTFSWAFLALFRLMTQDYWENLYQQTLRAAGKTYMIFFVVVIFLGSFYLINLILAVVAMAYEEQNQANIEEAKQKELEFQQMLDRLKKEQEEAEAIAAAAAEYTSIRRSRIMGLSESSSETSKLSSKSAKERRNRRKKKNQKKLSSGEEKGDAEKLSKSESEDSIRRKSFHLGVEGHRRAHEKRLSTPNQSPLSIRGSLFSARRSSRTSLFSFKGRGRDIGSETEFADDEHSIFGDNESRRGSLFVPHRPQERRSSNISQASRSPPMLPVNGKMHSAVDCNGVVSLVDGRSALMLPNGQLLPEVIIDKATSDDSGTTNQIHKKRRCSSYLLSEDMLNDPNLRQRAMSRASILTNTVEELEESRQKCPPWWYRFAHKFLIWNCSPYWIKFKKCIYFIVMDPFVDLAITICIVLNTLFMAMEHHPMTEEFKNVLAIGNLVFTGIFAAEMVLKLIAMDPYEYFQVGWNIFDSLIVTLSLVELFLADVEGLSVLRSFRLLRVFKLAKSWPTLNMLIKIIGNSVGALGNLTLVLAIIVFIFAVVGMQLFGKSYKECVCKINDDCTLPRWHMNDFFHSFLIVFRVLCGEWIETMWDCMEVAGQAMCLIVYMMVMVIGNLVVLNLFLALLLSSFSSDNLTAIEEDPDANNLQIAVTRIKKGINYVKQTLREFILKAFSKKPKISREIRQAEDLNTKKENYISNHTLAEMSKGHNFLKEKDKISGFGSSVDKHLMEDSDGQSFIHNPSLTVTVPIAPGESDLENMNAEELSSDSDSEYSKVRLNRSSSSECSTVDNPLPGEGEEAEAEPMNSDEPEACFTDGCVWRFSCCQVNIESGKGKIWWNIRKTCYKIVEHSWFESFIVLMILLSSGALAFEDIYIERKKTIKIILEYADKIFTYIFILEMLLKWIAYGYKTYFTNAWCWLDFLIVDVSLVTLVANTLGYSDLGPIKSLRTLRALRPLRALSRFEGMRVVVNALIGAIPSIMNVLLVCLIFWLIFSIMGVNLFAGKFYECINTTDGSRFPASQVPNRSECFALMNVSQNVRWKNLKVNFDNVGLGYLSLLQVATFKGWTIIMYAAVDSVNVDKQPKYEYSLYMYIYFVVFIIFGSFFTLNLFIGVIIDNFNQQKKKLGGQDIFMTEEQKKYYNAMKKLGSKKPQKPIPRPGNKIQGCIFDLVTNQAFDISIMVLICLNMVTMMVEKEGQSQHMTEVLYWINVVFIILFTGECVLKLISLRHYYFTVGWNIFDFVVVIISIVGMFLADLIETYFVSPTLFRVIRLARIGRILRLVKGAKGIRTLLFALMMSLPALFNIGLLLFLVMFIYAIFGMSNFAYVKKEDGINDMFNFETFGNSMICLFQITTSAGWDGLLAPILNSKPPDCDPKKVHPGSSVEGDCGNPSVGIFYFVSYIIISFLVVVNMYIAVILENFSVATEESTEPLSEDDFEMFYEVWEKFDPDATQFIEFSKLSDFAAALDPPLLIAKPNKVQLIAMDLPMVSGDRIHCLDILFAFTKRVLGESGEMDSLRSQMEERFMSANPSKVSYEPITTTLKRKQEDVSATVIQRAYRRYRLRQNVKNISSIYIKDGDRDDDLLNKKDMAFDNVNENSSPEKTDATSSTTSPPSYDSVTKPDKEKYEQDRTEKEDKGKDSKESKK

[7] = target: Sodium channel protein type 4 subunit alpha (Homo sapiens, UniProt P35499); test: Inhibition of human NaV1.4 channel by patch clamp electrophysiology assay
[8] = target: Sodium channel protein type 10 subunit alpha (Homo sapiens, UniProt Q9Y5Y9); test: Inhibition of human NaV1.8 channel by patch clamp electrophysiology assay
[9] = target: T1, Sodium channel protein type 9 subunit alpha; test: Inhibition of human NaV1.7 channel expressed in HEK293 cells treated for 120 secs by QPatch assay; assay type: cell-based
Mus musculus = test: Toxicity in mouse administered 15 to 20 mins; assay type: organism-based; settings: in vivo
[10] = Selectivity ratio of IC50 for human NaV1.7 channel expressed in Xenopus laevis oocytes to IC50 for mouse NaV1.6 channel expressed in Xenopus laevis oocytes; assay type: cell-based
[11] = Selectivity ratio of IC50 for rat NaV1.2 channel expressed in Xenopus laevis oocytes to IC50 for mouse NaV1.6 channel expressed in Xenopus laevis oocytes; assay type: cell-based
[12] = Selectivity ratio of IC50 for rat NaV1.3 channel expressed in Xenopus laevis oocytes to IC50 for mouse NaV1.6 channel expressed in Xenopus laevis oocytes; assay type: cell-based
[13] = Selectivity ratio of IC50 for rat NaV1.4 channel expressed in Xenopus laevis oocytes to IC50 for mouse NaV1.6 channel expressed in Xenopus laevis oocytes; assay type: cell-based
[14] = Inhibition of mouse NaV1.2 channel by two-electrode voltage-clamp method
[15] = target: Sodium channel protein type 1 subunit alpha (Mus musculus, UniProt A2APX8); test: Inhibition of mouse NaV1.1 channel by two-electrode voltage-clamp method
[16] = target: Sodium channel protein type 8 subunit alpha (Mus musculus, UniProt Q9WTU3); test: Inhibition of mouse NaV1.6 channel by two-electrode voltage-clamp method
[17] = target: Sodium channel protein type 9 subunit alpha (Rattus norvegicus, UniProt O08562); test: Inhibition of rat NaV1.7 channel by two-electrode voltage-clamp method
[18] = target: Sodium channel protein type 4 subunit alpha (Mus musculus, UniProt Q9ER60); test: Inhibition of mouse NaV1.4 channel by two-electrode voltage-clamp method
[19] = target: T1, Sodium channel protein type 9 subunit alpha; test: Inhibition of human NaV1.7 channel expressed in HEK cells by patch clamp electrophysiology assay; assay type: cell-based, HEK293
[20] = target: Sodium channel protein type 3 subunit alpha (Rattus norvegicus, UniProt P08104); test: Inhibition of rat NaV1.3 channel
[21] = target: Sodium channel protein type 2 subunit alpha (Rattus norvegicus, UniProt P04775); test: Inhibition of rat NaV1.2 channel
[22] = target: NaV1.5 (sodium channel protein type 5 subunit alpha) (Rattus norvegicus, UniProt P15389); test: Inhibition of rat NaV1.5 channel at 1 uM relative to control
[23] = target: Sodium channel protein type 4 subunit alpha (Rattus norvegicus) (UniProt P15390); test: Inhibition of rat NaV1.4 channel at 1 uM relative to control
[24] = target: T1, Sodium channel protein type 9 subunit alpha; test: Inhibition of human NaV1.7 channel by patch clamp electrophysiology assay
[25] = Toxicity in mouse; assay type: organism-based; settings: in vivo

O=C(Nc1ccc(S(=O)(=O)Nc2nccs2)cc1)C(c1ccccc1)c1ccccc1 gave an IC50 [1] of 240 nM, an IC50 [2] greater than 10000 nM and an IC50 [3] of less than 20 nM. It also gave an IC50 [4] greater than 10000 nM, an IC50 [5] of less than 20 nM and an IC50 [6] greater than 10000 nM. It also gave an IC50 [7] greater than 10000 nM and an IC50 [8] greater than 10000 nM.
With Cc1ccc(OCC(C)C)c(-c2cccc([C@@H]3CC[C@]4(CCN(C)C4=O)N3)c2F)c1 the IC50 [9] was 251 nM.
CC1=CN=C(C)C1C(=O)O[C@@H](C)C1=CC[C@@]23OCCN(C)C[C@@]12C[C@@H](O)[C@]12O[C@@]4(O)CC[C@@]1(C)[C@H](CC=C32)C4 (stereo partly specified) showed an LD50 (Mus musculus) of 0.002 mg/kg.
In the case of N=C1N[C@H]2OC3C4(N1)C2[C@H]1O[C@]3(O)OC([C@H]4O)[C@]1(O)CO, the Ratio IC50 [10] is reported as 163, the Ratio IC50 [11] is reported as 161 and the Ratio IC50 [12] is reported as 44. For the same compound, the Ratio IC50 [13] was 127.
For CN1CC[C@]2(CC[C@@H](c3cc(-c4cccc(OC(F)(F)F)c4)ccn3)N2)C1=O, the IC50 [9] was 251 nM.
N=C(N)NCCC[C@@H]1NC(=O)[C@H](CO)NC(=O)[C@H](Cc2cnc[nH]2)NC(=O)[C@H](CC(=O)O)NC(=O)[C@H](CCCNC(=N)N)NC(=O)[C@@H]2CSSC[C@H](N)C(=O)N[C@H]3CSSC[C@H](NC1=O)C(=O)N[C@H](C(=O)O)CSSC[C@H](NC(=O)[C@H](CC(N)=O)NC3=O)C(=O)N[C@@H](CO)C(=O)N[C@@H](CO)C(=O)N[C@@H](CCCCN)C(=O)N[C@@H](Cc1c[nH]c3ccccc13)C(=O)N2 showed a Kd [14] of 5 nM, a Kd [15] of 290 nM and an IC50 [16] of 240 nM. It also gave a Kd [17] of 290 nM and an IC50 [18] of 90 nM.
Compound CCCOc1ncccc1-c1cc(C(=O)NS(C)(=O)=O)ccc1Oc1ccc(Cl)cc1 has an IC50 [19] of 14 nM.
Work on CC[C@H](C)[C@H](NC(=O)[C@H](CCC(=O)O)NC(=O)[C@H](Cc1ccc(O)cc1)NC(=O)[C@H](CCCCN)NC(=O)[C@H](CS)NC(=O)[C@H](Cc1c[nH]c2ccccc12)NC(=O)[C@H](CCCNC(=N)N)NC(=O)[C@H](Cc1cnc[nH]1)NC(=O)[C@H](CCCCN)NC(=O)[C@H](CCCNC(=N)N)NC(=O)[C@H](CO)NC(=O)[C@H](CS)NC(=O)[C@@H](NC(=O)[C@H](CC(C)C)NC(=O)[C@H](CC(N)=O)NC(=O)[C@H](CO)NC(=O)[C@H](CO)NC(=O)[C@H](CCCCN)NC(=O)[C@H](CS)NC(=O)[C@H](CS)NC(=O)[C@H](CCC(N)=O)NC(=O)[C@H](CC(=O)O)NC(=O)[C@H](CC(N)=O)NC(=O)[C@H](CO)NC(=O)[C@@H]1CCCN1C(=O)[C@H](CC(N)=O)NC(=O)[C@H](CS)NC(=O)CNC(=O)[C@H](CCCCN)NC(=O)CNC(=O)[C@H](Cc1ccccc1)NC(=O)CNC(=O)[C@H](CC(C)C)NC(=O)[C@H](CS)NC(=O)[C@@H](N)CCC(=O)O)C(C)C)C(N)=O yielded an IC50 [20] of 375 nM, an IC50 [21] of 36 nM and an inhibition at 1 µM [22] of 0%. The inhibition [23] was 7.3% and the IC50 [24] was 21 nM.
Work on Nc1nc2cc(-c3cc(Cl)ccc3Oc3cc(F)c(S(=O)(=O)Nc4ncns4)cc3F)ccc2[nH]1 yielded an IC50 [2] greater than 10000 nM and an IC50 [6] of 30 nM.
For Cc1cc(-c2ccc(C(F)(F)F)cc2)nc([C@@H]2CC[C@]3(CCN(C)C3=O)N2)n1, the IC50 [9] was 2000 nM.
Compound O=S(=O)(Nc1ncns1)c1cc(F)c(OC[C@@H]2CNCC[C@H]2c2ccc(Cl)c(F)c2)cc1F has an IC50 [2] greater than 10000 nM.
For COc1ccc(C(=O)O[C@H]2CC[C@@]3(C)[C@@H]4CC[C@H]5[C@]6(O)C[C@H](O)[C@@]7(O)[C@@H](CN8C[C@@H](C)CC[C@H]8[C@@]7(C)O)[C@]6(O)C[C@@]53O[C@]24O)cc1OC [VERATRIDINE], the LD50 [25] was 9 mg/kg.
